Source: patent US12441691B2 (Cytokinetics, Inc., priority 2020, dated 2025)

Tested on: rabbit skeletal myofibrils (fast skeletal myofibrils)
Test: Activation of fast skeletal myofibrils (PUMA assay, AC1.4)
Assay type: biochemical
Settings: calcium at pCa25, AC1.4 = concentration at which the compound increased the enzymatic activity
How it was run: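 In 12 mM PIPES pH 6.8 with 2 mM MgCl2 and 1 mM DTT, Triton-washed rabbit skeletal myofibrils were run at the pCa25 calcium level. Myosin-made ADP was recycled through a PK/LDH coupled system; NADH loss read at 340 nm.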

Row | Compound | AC1.4
1 | CC[C@H](C)[C@H]1C(=O)Nc2ccccc2CN1C(=O)N1CC[C@H](O)C1 [Compound 282, (S)-3-((S)-sec-butyl)-4-((S)-3-hydroxypyrrolidine-1-carbonyl)-1,3,4,5-tetrahydro-2H-benzo[e][1,4]diazepin-2-one] | 0.38 µM
2 | CC[C@H](C)[C@H]1C(=O)Nc2ccccc2CN1C(=O)Nc1nnc(C)s1 [Compound 283, (S)-3-((S)-sec-butyl)-N-(5-methyl-1,3,4-thiadiazol-2-yl)-2-oxo-1,2,3,5-tetrahydro-4H-benzo[e][1,4]diazepine-4-carboxamide] | 0.09 µM
3 | CC[C@H](C)[C@H]1C(=O)Nc2ccccc2CN1C(=O)Nc1cccnc1CO [Compound 284, (S)-3-((S)-sec-butyl)-N-(2-(hydroxymethyl)pyridin-3-yl)-2-oxo-1,2,3,5-tetrahydro-4H-benzo[e][1,4]diazepine-4-carboxamide] | 0.11 µM
4 | CC[C@H](C)[C@H]1C(=O)Nc2ccccc2CN1C(=O)N1CC[C@@H](CO)C1 [Compound 285, (S)-3-((S)-sec-butyl)-4-((R)-3-(hydroxymethyl)pyrrolidine-1-carbonyl)-1,3,4,5-tetrahydro-2H-benzo[e][1,4]diazepin-2-one] | 0.54 µM
5 | CC[C@H](C)[C@H]1C(=O)Nc2ccccc2CN1C(=O)NCc1ccccc1C(N)=O [Compound 286] | 0.30 µM
6 | CC[C@H](C)[C@H]1C(=O)Nc2ccccc2CN1C(=O)N[C@H](C(N)=O)c1ccccc1 [Compound 287, (S)-N-((S)-2-amino-2-oxo-1-phenylethyl)-3-((S)-sec-butyl)-2-oxo-1,2,3,5-tetrahydro-4H-benzo[e][1,4]diazepine-4-carboxamide] | 0.35 µM
7 | CC[C@H](C)[C@H]1C(=O)Nc2ccccc2CN1C(=O)c1ccc(C(N)=O)cc1 [Compound 288, 4-((S)-3-((S)-sec-butyl)-2-oxo-2,3,4,5-tetrahydro-1H-benzo[e][1,4]diazepine-4-carbonyl)benzamide] | 0.16 µM
8 | CC[C@H](C)[C@H]1C(=O)Nc2ccccc2CN1C(=O)N1CC[C@H](C(=O)O)C1 [Compound 289, (S)-1-((S)-3-((S)-sec-butyl)-2-oxo-2,3,4,5-tetrahydro-1H-benzo[e][1,4]diazepine-4-carbonyl)pyrrolidine-3-carboxylic acid] | 3.59 µM
9 | CC[C@H](C)[C@H]1C(=O)Nc2ccccc2CN1C(=O)NC1CCN(C)CC1 [Compound 290, (S)-3-((S)-sec-butyl)-N-(1-methylpiperidin-4-yl)-2-oxo-1,2,3,5-tetrahydro-4H-benzo[e][1,4]diazepine-4-carboxamide] | 0.15 µM
10 | CC[C@H](C)[C@H]1C(=O)Nc2ccccc2CN1C(=O)Nc1ccn(C)c(=O)c1 [Compound 291, (S)-3-((S)-sec-butyl)-N-(1-methyl-2-oxo-1,2-dihydropyridin-4-yl)-2-oxo-1,2,3,5-tetrahydro-4H-benzo[e][1,4]diazepine-4-carboxamide] | 0.05 µM
11 | CC[C@H](C)[C@H]1C(=O)Nc2ccccc2CN1C(=O)Nc1cncc(OC)c1 [Compound 292, (S)-3-((S)-sec-butyl)-N-(5-methoxypyridin-3-yl)-2-oxo-1,2,3,5-tetrahydro-4H-benzo[e][1,4]diazepine-4-carboxamide] | 0.05 µM
12 | CC[C@H](C)[C@H]1C(=O)Nc2ccccc2CN1C(=O)NC1CCOCC1 [Compound 293, (S)-3-((S)-sec-butyl)-2-oxo-N-(tetrahydro-2H-pyran-4-yl)-1,2,3,5-tetrahydro-4H-benzo[e][1,4]diazepine-4-carboxamide] | 0.55 µM
13 | CC[C@H](C)[C@H]1C(=O)Nc2ccccc2CN1C(=O)N1CC[C@H](C(=O)NC)C1 [Compound 294, (S)-1-((S)-3-((S)-sec-butyl)-2-oxo-2,3,4,5-tetrahydro-1H-benzo[e][1,4]diazepine-4-carbonyl)-N-methylpyrrolidine-3-carboxamide] | 2.32 µM
14 | CC[C@H](C)[C@H]1C(=O)Nc2ccccc2CN1C(=O)N1CC[C@H](C(=O)N(C)C)C1 [Compound 295] | 3.41 µM
15 | CC[C@H](C)[C@H]1C(=O)Nc2ccccc2CN1C(=O)N1CC[C@H](C(N)=O)C1 [Compound 296, (S)-1-((S)-3-((S)-sec-butyl)-2-oxo-2,3,4,5-tetrahydro-1H-benzo[e][1,4]diazepine-4-carbonyl)pyrrolidine-3-carboxamide] | 1.75 µM
16 | CC[C@H](C)[C@H]1C(=O)Nc2ccccc2CN1C(=O)N(C)C(C)C [Compound 297, (S)-3-((S)-sec-butyl)-N-isopropyl-N-methyl-2-oxo-1,2,3,5-tetrahydro-4H-benzo[e][1,4]diazepine-4-carboxamide] | 1.13 µM
17 | CC[C@H](C)[C@H]1C(=O)Nc2ccccc2CN1C(=O)Nc1cncc(C(N)=O)c1 [Compound 298, (S)-3-((S)-sec-butyl)-N-(5-carbamoylpyridin-3-yl)-2-oxo-1,2,3,5-tetrahydro-4H-benzo[e][1,4]diazepine-4-carboxamide] | 0.07 µM
18 | CC[C@H](C)[C@H]1C(=O)Nc2ccccc2CN1C(=O)Nc1ccn(CCOC)n1 [Compound 299, (S)-3-((S)-sec-butyl)-N-(1-(2-methoxyethyl)-1H-pyrazol-3-yl)-2-oxo-1,2,3,5-tetrahydro-4H-benzo[e][1,4]diazepine-4-carboxamide] | 0.18 µM
19 | CC[C@H](C)[C@H]1C(=O)Nc2ccccc2CN1C(=O)N1CC(F)(F)C1 [Compound 300, (S)-3-((S)-sec-butyl)-4-(3,3-difluoroazetidine-1-carbonyl)-1,3,4,5-tetrahydro-2H-benzo[e][1,4]diazepin-2-one] | 0.42 µM
20 | CC[C@H](C)[C@H]1C(=O)Nc2ccccc2CN1C(=O)NC1CCN(CCO)CC1 [Compound 301, (S)-3-((S)-sec-butyl)-N-(1-(2-hydroxyethyl)piperidin-4-yl)-2-oxo-1,2,3,5-tetrahydro-4H-benzo[e][1,4]diazepine-4-carboxamide] | 0.36 µM
21 | CC[C@H](C)[C@H]1C(=O)Nc2ccccc2CN1C(=O)N1CCC[C@@H](CO)C1 [Compound 302, (S)-3-((S)-sec-butyl)-4-((R)-3-(hydroxymethyl)piperidine-1-carbonyl)-1,3,4,5-tetrahydro-2H-benzo[e][1,4]diazepin-2-one] | 0.82 µM
22 | CC[C@H](C)[C@H]1C(=O)Nc2ccccc2CN1C(=O)N1CCC[C@H](CO)C1 [Compound 303, (S)-3-((S)-sec-butyl)--4-((S)-3-(hydroxymethyl)piperidine-1-carbonyl)-1,3,4,5-tetrahydro-2H-benzo[e][1,4]diazepin-2-one] | 0.89 µM
23 | CC[C@H](C)[C@H]1C(=O)Nc2ccccc2CN1C(=O)N1CCCC(C(N)=O)C1 (stereo partly drawn) [Compound 304, 1-((S)-3-((S)-sec-butyl)-2-oxo-2,3,4,5-tetrahydro-1H-benzo[e][1,4]diazepine-4-carbonyl)piperidine-3-carboxamide] | 2.27 µM
24 | CC[C@H](C)[C@H]1C(=O)Nc2ccccc2CN1C(=O)N1CCCC(C(N)=O)C1 (stereo partly drawn) [Compound 305, 1-((S)-3-((S)-sec-butyl)-2-oxo-2,3,4,5-tetrahydro-1H-benzo[e][1,4]diazepine-4-carbonyl)piperidine-3-carboxamide] | 1.42 µM
25 | CC[C@H](C)[C@H]1C(=O)Nc2ccccc2CN1C(=O)N1CC(F)C1 [Compound 306, (S)-3-((S)-sec-butyl)-4-(3-fluoroazetidine-1-carbonyl)-1,3,4,5-tetrahydro-2H-benzo[e][1,4]diazepin-2-one] | 0.11 µM
